Consider three compounds from article PMC12670396, “Crizotinib- or Ceritinib-Conjugated Platinum(IV) Prodrugs As Potent Multiaction Agents Inducing Antiproliferative Effects in 2D and 3D Cancer Cell Models” (Journal of Medicinal Chemistry, 2025).

Data set [1] deals with CT26 and NCI-H2228 cells. Briefly: Extracellular HMGB1 (ELISA). In kind it is cell-based. The following applies: IC50 concentrations, 24 h. The procedure: The amount of HMGB1 in the medium was determined using an enzyme-linked immunosorbent assay (ELISA).
CT26 and NCI-H2228 cells were seeded in 48-well plates at a density of 5 × 10^4 cells/well and grown overnight. […] Aliquots of the supernatants were then withdrawn and processed using the HMGB1 Express ELISA kit (TECAN) according to the manufacturer’s instructions. The final absorbance, proportional to the HMGB1 amount, was read at 420 nm using a multimode SPARK reader (TECAN).
(An ELISA detects its analyte on a solid surface through an enzyme-linked reagent.)

The test system of data set [2] is CT26 cell line. Briefly: MTT cytotoxic/antiproliferative activity, 72 h. In kind it is cell-based, murine. The following applies: Mus musculus.
The subject of data set [3] is MMC2. Kind of data set: MTT cytotoxicity in NER-deficient cells, 72 h. Type of data set: cell-based, Chinese hamster. The conditions noted are these: for IC50: Cricetulus griseus, MMC2 (NER deficient), MTT, 72 h. The text has this:
The cytotoxicity assay was also employed to determine whether DNA damage might be involved in the mechanism of action of the tested compounds. The Chinese hamster ovary MMC2 cell line harbors the ERCC3/XPB mutation, which renders it deficient in nucleotide excision repair (NER), whereas the parent line CHOK1 is proficient in this repair process. Thus, the MMC2 line is often more sensitive to agents causing DNA damage, especially NER-reparable DNA damage, than CHOK1. […] Phosphorylation of H2AX is a commonly used marker of DNA damage. […]

Data set [4] deals with A549. Kind of data set: MTT cytotoxic/antiproliferative activity, 72 h. Type of data set: cell-based, human. The conditions noted are these: Homo sapiens; A549, MTT, 72 h.
Data set [5] has as its system normal (noncancerous) cells MRC-5, IMR-90, hTERT-HPNE, MCF10A. Briefly: MTT, noncancerous cell lines (average, selectivity index). In kind it is cell-based, human. The following applies: for IC50: Homo sapiens, average over MRC-5, IMR-90, hTERT-HPNE, MCF10A, read-out: av norm (average IC50 in noncancerous cells). The protocol:
Growth inhibition activity in cancer cell lines was compared with the activity to inhibit the proliferation of normal (noncancerous) cells, namely MRC-5, IMR-90, hTERT-HPNE, and MCF10A cells. Selectivity indexes (SI) were calculated as (IC50 in noncancerous cells)/(average IC50 in cancer cells). […] We further assessed the toxicity of several of the compounds in hepatocyte-like cells (HLC) generated from human pluripotent cells. […]

Data set [6] deals with NCI-H2228. Kind of data set: MTT cytotoxic/antiproliferative activity, 72 h. In kind it is cell-based, human. The conditions noted are these: Homo sapiens; NCI-H2228, MTT, 72 h.
The test system of data set [7] is MDA-MB-231. Briefly: MTT cytotoxic/antiproliferative activity, 72 h. Type of data set: cell-based, human. The conditions noted are these: Homo sapiens; MDA-MB-231, MTT, 72 h.
A short description of data set [8]: Cytotoxicity in hepatocyte-like cells, sulphorhodamine B assay. Type of data set: cell-based. The conditions noted are these: hepatocyte-like cells from human pluripotent cells. The procedure:
(§1) Growth inhibition activity in cancer cell lines was compared with the activity to inhibit the proliferation of normal (noncancerous) cells, namely MRC-5, IMR-90, hTERT-HPNE, and MCF10A cells. Selectivity indexes (SI) were calculated as (IC50 in noncancerous cells)/(average IC50 in cancer cells). […] We further assessed the toxicity of several of the compounds in hepatocyte-like cells (HLC) generated from human pluripotent cells.
(§2) Cytotoxicity in hepatocyte-like cells (HLC). STEMdiff Hepatocyte Kit was used to generate HLC from human pluripotent stem cells. Cytotoxicity of several of the tested compounds in HLC was evaluated using the sulphorhodamine B assay.
On the technique in general: The SRB assay estimates cell density from bound dye.

Data set [9] deals with MCF10A. Briefly: MTT cytotoxicity in noncancerous cells, 72 h. Type of data set: cell-based, human. The conditions noted are these: Homo sapiens, MCF-10A. The protocol:
as §1, §2

The subject of data set [10] is hTERT-HPNE. Kind of data set: MTT cytotoxicity in noncancerous cells, 72 h. In kind it is cell-based, human. The following applies: Homo sapiens. The procedure: as §1, §2
Data set [11] has as its system MRC-5. Briefly: MTT cytotoxicity in noncancerous cells, 72 h. In kind it is cell-based, human. The following applies: Homo sapiens, MRC5, MRC-5, MTT. The protocol: as §1, §2
Data set [12] relates to IMR-90. Kind of data set: MTT cytotoxicity in noncancerous cells, 72 h. The conditions noted are these: Homo sapiens, IMR-90, MTT. Type of data set: cell-based, human. The procedure:
as §1, §2

The test system of data set [13] is NCI-H2228 spheroids. Briefly: Cytotoxicity in 3D spheroids, CellTiter-Glo 3D. In kind it is cell-based, human. The conditions noted are these: Homo sapiens, NCI-H2228 3D spheroids, 96 h. The protocol: (§3) In the 3D structure, the gradients of gases, nutrients, and therapeutics play a role in the final cytotoxicity of a compound.
(§4) A549 and NCI-H2228 cells were seeded in ultralow attachment, U-shape plates (Corning) at a density of 800 cells/well in the tumorsphere medium consisting of DMEM/F12 medium (Sigma), fibroblast growth factor (20 ng/mL; Sigma), epidermal growth factor 2 (10 ng mL^–1; Sigma), B27 supplement (1×; Gibco), bovine serum albumin, bovine serum albumin (BSA) (1.5 mg mL^–1; Sigma). […] CellTiter-Glo 3D viability assay was used for the experiment evaluation following the manufacturer’s instructions. The bioluminescence signal, proportional to the number of living cells, was measured using the luminescence reader SPARK, and IC50 values were calculated.

Data set [14] deals with A549 spheroids. Briefly: Cytotoxicity in 3D spheroids, CellTiter-Glo 3D. Type of data set: cell-based, human. The following applies: Homo sapiens, A549 3D spheroids, 96 h. The protocol: as §3, §4
(ATP-based viability assays read luminescence as a measure of living cells.)

For data set [15], the system named is RD. Kind of data set: MTT cytotoxic/antiproliferative activity, 72 h. Type of data set: cell-based, human. The conditions noted are these: Homo sapiens, MTT, 72 h.
For data set [16], the system named is panel of six cancer cell lines. Kind of data set: MTT, panel of six cancer cell lines (average, ranges). In kind it is cell-based, human. The conditions noted are these: Homo sapiens; average over six cancer cell lines; read-out: av cancer (average IC50 in cancer cells). The procedure: (§5) A panel of six cancer cell lines was used to evaluate the cytotoxic potential of the investigated compounds.
as §2

The test system of data set [17] is CHOK1. Briefly: MTT cytotoxicity in NER-proficient cells, 72 h. In kind it is cell-based, Chinese hamster. The conditions noted are these: Cricetulus griseus, CHO-K1.
Description: The cytotoxicity assay was also employed to determine whether DNA damage might be involved in the mechanism of action of the tested compounds. The Chinese hamster ovary MMC2 cell line harbors the ERCC3/XPB mutation, which renders it deficient in nucleotide excision repair (NER), whereas the parent line CHOK1 is proficient in this repair process. Thus, the MMC2 line is often more sensitive to agents causing DNA damage, especially NER-reparable DNA damage, than CHOK1. […] Phosphorylation of H2AX is a commonly used marker of DNA damage.
as §2

For data set [18], the system named is U87-MG. Kind of data set: MTT cytotoxic/antiproliferative activity, 72 h. The following applies: Homo sapiens, U-87 MG, MTT, 72 h. Type of data set: cell-based, human. The procedure:
as §5, §2

The subject of data set [19] is HCT116. Briefly: MTT cytotoxic/antiproliferative activity, 72 h. The conditions noted are these: Homo sapiens, HCT-116; HCT116, MTT, 72 h. Type of data set: cell-based, human.
Data set [20] deals with T1, MET (Homo sapiens, UniProt P08581).
T1 construct: Western blot analysis of the phosphorylation state of ALK and MET; endogenous in cells; host or cells: NCI-H2228
Briefly: Western blot of MET phosphorylation state. In kind it is cell-based. The conditions noted are these: NCI-H2228 lysates, IC50 concentrations, 24 h. The procedure: (§6) Whereas the signals of pALK and pMET are decreased in the presence of the tested compounds, the overall amount of ALK and MET is not markedly changed.
(§7) NCI-H2228 cells were seeded in 6-well plates at a density of 2 × 10^5 cells/well and incubated overnight. […] The cells were then harvested and lysed using RIPA lysis buffer supplemented with protease and phosphatase inhibitors as recommended by the manufacturer. Protein extracts were resolved with SDS-PAGE, transferred to a PVDF membrane, and the respective proteins were detected with specific antibodies (anti-phosphoALK, anti-ALK, anti-phosphoMET, anti-MET, and anti-GADPH) and HRP-conjugated secondary antibodies. The signals were obtained with SignalFire ECL Reagent and recorded with an Amersham680 reader.

Data set [21] addresses T2, ALK (Homo sapiens, UniProt Q9HC35+Q9UM73).
T2 construct: Western blot detection of the ALK phosphorylation state in lysates of NCI-H2228 cells exposed to the tested compounds; endogenous in cells; host or cells: NCI-H2228
Kind of data set: Western blot of ALK phosphorylation state. In kind it is cell-based. The following applies: NCI-H2228 lysates, IC50 concentrations, 24 h. The procedure: as §6, §7

T1 sequence (P08581 25-1390): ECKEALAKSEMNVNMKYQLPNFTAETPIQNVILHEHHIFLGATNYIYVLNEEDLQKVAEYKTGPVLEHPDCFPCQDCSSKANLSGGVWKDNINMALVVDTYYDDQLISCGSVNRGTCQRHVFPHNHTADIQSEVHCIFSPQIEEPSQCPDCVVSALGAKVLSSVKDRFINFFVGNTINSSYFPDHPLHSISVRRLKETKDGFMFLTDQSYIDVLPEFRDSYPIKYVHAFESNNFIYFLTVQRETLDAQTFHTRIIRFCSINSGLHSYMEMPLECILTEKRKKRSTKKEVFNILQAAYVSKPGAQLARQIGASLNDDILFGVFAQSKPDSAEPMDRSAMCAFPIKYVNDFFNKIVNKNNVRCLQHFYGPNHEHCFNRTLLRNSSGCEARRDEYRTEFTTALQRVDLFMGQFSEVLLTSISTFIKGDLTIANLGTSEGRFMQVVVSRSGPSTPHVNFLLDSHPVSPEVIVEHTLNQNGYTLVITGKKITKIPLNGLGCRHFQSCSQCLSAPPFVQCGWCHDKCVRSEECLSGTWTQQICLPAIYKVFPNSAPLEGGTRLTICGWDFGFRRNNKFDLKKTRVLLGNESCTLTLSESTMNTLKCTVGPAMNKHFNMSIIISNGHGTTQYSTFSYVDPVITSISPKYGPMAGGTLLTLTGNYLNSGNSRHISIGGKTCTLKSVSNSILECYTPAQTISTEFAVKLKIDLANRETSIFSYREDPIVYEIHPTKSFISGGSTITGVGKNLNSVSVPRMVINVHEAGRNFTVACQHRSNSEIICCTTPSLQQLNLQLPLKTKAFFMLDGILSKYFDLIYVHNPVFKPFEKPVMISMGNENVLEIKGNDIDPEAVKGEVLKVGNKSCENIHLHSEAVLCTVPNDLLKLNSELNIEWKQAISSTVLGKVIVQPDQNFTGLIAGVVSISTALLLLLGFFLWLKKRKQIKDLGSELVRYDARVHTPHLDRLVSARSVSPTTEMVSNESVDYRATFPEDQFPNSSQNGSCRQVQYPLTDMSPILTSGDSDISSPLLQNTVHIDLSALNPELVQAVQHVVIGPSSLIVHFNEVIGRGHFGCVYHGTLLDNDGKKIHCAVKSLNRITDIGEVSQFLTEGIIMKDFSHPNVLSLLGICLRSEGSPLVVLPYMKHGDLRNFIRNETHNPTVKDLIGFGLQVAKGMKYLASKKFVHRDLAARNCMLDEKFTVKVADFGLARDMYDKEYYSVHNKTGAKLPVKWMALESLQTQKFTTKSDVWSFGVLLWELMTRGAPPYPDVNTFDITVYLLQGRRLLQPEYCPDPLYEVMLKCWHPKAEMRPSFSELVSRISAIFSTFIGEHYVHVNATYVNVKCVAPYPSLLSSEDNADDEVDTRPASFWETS
T2 sequence (Q9HC35+Q9UM73 fused): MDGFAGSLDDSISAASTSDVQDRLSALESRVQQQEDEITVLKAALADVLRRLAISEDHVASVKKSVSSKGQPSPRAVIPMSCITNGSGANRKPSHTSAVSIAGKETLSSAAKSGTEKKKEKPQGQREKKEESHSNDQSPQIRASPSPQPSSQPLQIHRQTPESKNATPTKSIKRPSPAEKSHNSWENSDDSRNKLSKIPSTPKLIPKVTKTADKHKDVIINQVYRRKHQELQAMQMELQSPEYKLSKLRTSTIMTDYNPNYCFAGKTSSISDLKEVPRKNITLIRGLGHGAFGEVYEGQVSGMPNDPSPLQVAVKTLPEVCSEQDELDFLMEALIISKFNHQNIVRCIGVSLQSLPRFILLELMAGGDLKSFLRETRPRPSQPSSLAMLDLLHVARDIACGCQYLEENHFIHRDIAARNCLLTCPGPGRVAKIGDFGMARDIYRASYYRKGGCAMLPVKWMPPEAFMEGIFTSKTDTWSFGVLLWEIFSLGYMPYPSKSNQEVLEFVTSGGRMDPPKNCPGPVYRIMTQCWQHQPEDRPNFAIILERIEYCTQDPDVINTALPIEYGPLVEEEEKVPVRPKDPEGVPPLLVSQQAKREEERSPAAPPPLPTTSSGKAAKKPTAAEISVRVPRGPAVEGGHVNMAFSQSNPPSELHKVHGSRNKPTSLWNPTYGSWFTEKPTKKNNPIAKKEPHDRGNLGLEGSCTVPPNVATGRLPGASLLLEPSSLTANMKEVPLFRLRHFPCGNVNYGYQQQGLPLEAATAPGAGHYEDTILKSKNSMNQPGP

With `COc1cccc2c1C(=O)c1c(O)c3c(c(O)c1C2=O)C[C@@](O)(C(=O)CO)C[C@@H]3O[C@H]1C[C@H](N)[C@H](O)[C@H](C)O1` [DOX, doxorubicin], the “HMGB1 externalization relative to nontreated control” value in data set [1] is on record as “highest increase”. The IC50 – broadly, the concentration that inhibits the measured activity by half – in [2] was determined as 2.1 ± 0.3 µM.
As for `C[C@@H](Oc1cc(-c2cnn(C3CCNCC3)c2)cnc1N)c1c(Cl)ccc(F)c1Cl` [compound 1, crizotinib], the IC50 in [3] amounted to 1.4 ± 0.3 µM; in [4] it was 1 ± 0.2 µM; in data set [5], 6.3 µM; in data set [6] it was 0.82 ± 0.07 µM; in [7] it was 1.2 ± 0.3 µM; in data set [8], 9 ± 3 µM. Also, the IC50 in [9] was 6.4 ± 0.7 µM; in data set [10], 6.9 ± 0.8 µM; in [11] it was 4.3 ± 0.3 µM; in data set [12], 7.6 ± 0.9 µM; in data set [13] it was 1.5 ± 0.3 µM; in [14] it was 3 ± 1 µM. In addition, the IC50 in data set [15] came out at 1.4 ± 0.4 µM; in data set [16], 1.7 µM; in data set [2], 1.8 ± 0.4 µM; in [17] it was 1.3 ± 0.5 µM; in data set [18], 3.9 ± 0.5 µM; in data set [19], 1.9 ± 0.5 µM.
As to `Cc1cc(Nc2ncc(Cl)c(Nc3ccccc3S(=O)(=O)C(C)C)n2)c(OC(C)C)cc1C1CCNCC1` [compound 5, ceritinib], the IC50 was 1.3 ± 0.3 µM in [3]; 0.9 ± 0.2 µM in [4]; 3.4 µM in [5]; 0.51 ± 0.04 µM in data set [6]; 1.4 ± 0.9 µM in [7]; 8 ± 3 µM in [8]. In addition, the IC50 came out at 3.4 ± 0.9 µM in data set [9]; 4.1 ± 0.2 µM in data set [10]; 2.2 ± 0.5 µM in data set [11]; 3.7 ± 0.4 µM in data set [12]; 0.75 ± 0.09 µM in data set [13]; 2.3 ± 0.8 µM in [14]. For the same compound, the IC50 in data set [15] stood at 1.5 ± 0.3 µM; in [16], 1.1 µM; in data set [2], 1.2 ± 0.3 µM; in data set [17], 1.4 ± 0.6 µM; in [18] it was 1.1 ± 1 µM; in data set [19], 0.9 ± 0.2 µM. Also, the “Index F” value in data set [3] (IC50(CHOK1)/IC50(MMC2)) was 1.08. Further, the “SI, selectivity index” value in data set [5] (IC50(normal cells)/averageIC50(cancer cells)) was determined as 3.0. For the same compound, the “phosphorylation of MET” value in data set [20] is “inhibit the phosphorylation”. Also, the “phosphorylation of ALK” value in data set [21] is “inhibit the phosphorylation”.
